# From ChEMBL document CHEMBL6078652, “Discovery of Sporachelins by Genome Mining of a Micromonospora Strain” (J Nat Prod, 2024)
# The source made the active and inactive calls. The rule behind the calls is not given here.
# How the values were obtained:
# LX-2 [1] = assay: Antifibrotic activity against TGFbeta-1 induced human LX-2 cells assessed as inhibition of COL1A1 mRNA expression at 20 uM incubated for 24 hrs by qRT-PCR analysis relative to control; format: functional; set-up: scale not given: the % may be the effect or the level left
# LX-2 [2] = assay: Antifibrotic activity against TGFbeta-1 induced human LX-2 cells assessed as inhibition of TGFB1 mRNA expression at 20 uM incubated for 24 hrs by qRT-PCR analysis relative to control; format: functional; set-up: scale not given: the % may be the effect or the level left
# LX-2 [3] = assay: Antifibrotic activity against TGFbeta-1 induced human LX-2 cells assessed as inhibition of ACTA2 mRNA expression at 20 uM incubated for 24 hrs by qRT-PCR analysis relative to control; format: functional; set-up: scale not given: the % may be the effect or the level left
# LX-2 [4] = assay: Antifibrotic activity against TGFbeta-1 induced human LX-2 cells assessed as inhibition of COL1A1 mRNA expression at 1 uM incubated for 24 hrs by qRT-PCR analysis relative to control; format: functional; set-up: scale not given: the % may be the effect or the level left
# LX-2 [5] = assay: Antifibrotic activity against TGFbeta-1 induced human LX-2 cells assessed as inhibition of COL1A1 mRNA expression at 5 uM incubated for 24 hrs by qRT-PCR analysis relative to control; format: functional; set-up: scale not given: the % may be the effect or the level left
# LX-2 [6] = assay: Antifibrotic activity against TGFbeta-1 induced human LX-2 cells assessed as inhibition of TGFB1 mRNA expression at 1 uM incubated for 24 hrs by qRT-PCR analysis relative to control; format: functional; set-up: scale not given: the % may be the effect or the level left
# LX-2 [7] = assay: Antifibrotic activity against TGFbeta-1 induced human LX-2 cells assessed as inhibition of TGFB1 mRNA expression at 5 uM incubated for 24 hrs by qRT-PCR analysis relative to control; format: functional; set-up: scale not given: the % may be the effect or the level left
# LX-2 [8] = assay: Antifibrotic activity against TGFbeta-1 induced human LX-2 cells assessed as inhibition of ACTA2 mRNA expression at 1 uM incubated for 24 hrs by qRT-PCR analysis relative to control; format: functional; set-up: scale not given: the % may be the effect or the level left
# LX-2 [9] = assay: Antifibrotic activity against TGFbeta-1 induced human LX-2 cells assessed as inhibition of ACTA2 mRNA expression at 5 uM incubated for 24 hrs by qRT-PCR analysis relative to control; format: functional; set-up: scale not given: the % may be the effect or the level left
# LX-2 [10] = assay: Cytotoxicity against human LX-2 cells assessed as reduction in cell viability at 200 uM incubated for 24 hrs by CCK-8 assay; format: toxicity, cell-based; conditions: lx-2, 24 h
# NIH3T3 [11] = assay: Antifibrotic activity against TGFbeta-1 induced mouse NIH3T3 cells assessed as decrease in COL1A1 mRNA expression at 1 uM incubated for 24 hrs by qRT-PCR analysis relative to control; format: functional; set-up: scale not given: the % may be the effect or the level left
# NIH3T3 [12] = assay: Antifibrotic activity against TGFbeta-1 induced mouse NIH3T3 cells assessed as decrease in COL1A1 mRNA expression at 5 uM incubated for 24 hrs by qRT-PCR analysis relative to control; format: functional; set-up: scale not given: the % may be the effect or the level left
# NIH3T3 [13] = assay: Antifibrotic activity against TGFbeta-1 induced mouse NIH3T3 cells assessed as decrease in Acta2 mRNA expression at 1 uM incubated for 24 hrs by qRT-PCR analysis relative to control; format: functional; set-up: scale not given: the % may be the effect or the level left
# NIH3T3 [14] = assay: Antifibrotic activity against TGFbeta-1 induced mouse NIH3T3 cells assessed as decrease in Acta2 mRNA expression at 5 uM incubated for 24 hrs by qRT-PCR analysis relative to control; format: functional; set-up: scale not given: the % may be the effect or the level left
# [15] = target: T1, Polyunsaturated fatty acid 5-lipoxygenase (Homo sapiens) (UniProt P09917); assay: Inhibition of human 5-LO at 2 uM incubated for 15 mins in presence of ATP by measuring fluorescence intensity relative to control
# T1 sequence (whole entry): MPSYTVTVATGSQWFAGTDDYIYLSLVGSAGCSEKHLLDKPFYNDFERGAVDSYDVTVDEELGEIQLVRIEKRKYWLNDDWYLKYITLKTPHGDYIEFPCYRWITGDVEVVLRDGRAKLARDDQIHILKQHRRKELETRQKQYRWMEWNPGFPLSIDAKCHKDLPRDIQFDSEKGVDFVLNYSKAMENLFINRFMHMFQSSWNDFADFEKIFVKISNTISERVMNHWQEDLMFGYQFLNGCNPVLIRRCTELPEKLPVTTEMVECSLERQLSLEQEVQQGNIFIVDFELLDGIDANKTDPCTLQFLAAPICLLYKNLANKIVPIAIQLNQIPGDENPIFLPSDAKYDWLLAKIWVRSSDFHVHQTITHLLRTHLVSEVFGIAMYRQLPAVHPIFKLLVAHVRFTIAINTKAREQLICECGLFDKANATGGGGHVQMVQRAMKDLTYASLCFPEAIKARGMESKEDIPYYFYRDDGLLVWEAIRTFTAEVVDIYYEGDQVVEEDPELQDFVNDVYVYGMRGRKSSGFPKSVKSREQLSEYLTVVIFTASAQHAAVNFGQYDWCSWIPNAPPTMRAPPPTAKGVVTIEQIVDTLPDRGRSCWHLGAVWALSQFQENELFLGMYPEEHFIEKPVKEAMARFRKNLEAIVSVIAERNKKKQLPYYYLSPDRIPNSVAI
# LX-2 [16] = assay: Antifibrotic activity against TGFbeta-1 induced human LX-2 cells assessed as inhibition of COL1A1 mRNA expression incubated for 24 hrs by qRT-PCR analysis; format: functional, cell-based; conditions: dose 1-5 µM
# LX-2 [17] = assay: Antifibrotic activity against TGFbeta-1 induced human LX-2 cells assessed as inhibition of TGFB1 mRNA expression incubated for 24 hrs by qRT-PCR analysis; format: functional, cell-based; conditions: dose 1-5 µM
# LX-2 [18] = assay: Antifibrotic activity against TGFbeta-1 induced human LX-2 cells assessed as inhibition of ACTA2 mRNA expression incubated for 24 hrs by qRT-PCR analysis; format: functional, cell-based; conditions: dose 1-5 µM
# Escherichia coli [19] = assay: Antibacterial activity against Escherichia coli ATCC 25922 assessed as bacterial growth inhibition incubated for 16 hrs in presence of Muller-Hinton medium by broth microdilution method; format: functional, organism-based
# Escherichia coli [20] = assay: Antibacterial activity against Escherichia coli ATCC 35218 assessed as bacterial growth inhibition incubated for 16 hrs in presence of Muller-Hinton medium by broth microdilution method; format: functional, organism-based
# Pseudomonas aeruginosa [21] = assay: Antibacterial activity against Pseudomonas aeruginosa ATCC 27853 assessed as bacterial growth inhibition incubated for 16 hrs in presence of Muller-Hinton medium by broth microdilution method; format: functional, organism-based
# Pseudomonas aeruginosa [22] = assay: Antibacterial activity against Pseudomonas aeruginosa 2774 assessed as bacterial growth inhibition incubated for 16 hrs in presence of Muller-Hinton medium by broth microdilution method; format: functional, organism-based
# Klebsiella pneumoniae [23] = assay: Antibacterial activity against Klebsiella pneumoniae ATCC 10031 assessed as bacterial growth inhibition incubated for 16 hrs in presence of Muller-Hinton medium by broth microdilution method; format: functional, organism-based
# Klebsiella pneumoniae [24] = assay: Antibacterial activity against Klebsiella pneumoniae ATCC 700603 assessed as bacterial growth inhibition incubated for 16 hrs in presence of Muller-Hinton medium by broth microdilution method; format: functional, organism-based
# Acinetobacter baumannii [25] = assay: Antibacterial activity against Acinetobacter baumannii ATCC 19606 assessed as bacterial growth inhibition incubated for 16 hrs in presence of Muller-Hinton medium by broth microdilution method; format: functional, organism-based
# Acinetobacter baumannii [26] = assay: Antibacterial activity against Acinetobacter baumannii 2799 assessed as bacterial growth inhibition incubated for 16 hrs in presence of Muller-Hinton medium by broth microdilution method; format: functional, organism-based
# Enterococcus faecium = assay: Antibacterial activity against Enterococcus faecium 310682 (VRE) assessed as bacterial growth inhibition incubated for 16 hrs in presence of brain heart infusion medium by broth microdilution method; format: functional, organism-based
# Enterococcus faecalis = assay: Antibacterial activity against Enterococcus faecalis ATCC 33186 assessed as bacterial growth inhibition incubated for 16 hrs in presence of brain heart infusion medium by broth microdilution method; format: functional, organism-based
# Staphylococcus aureus [27] = assay: Antibacterial activity against Staphylococcus aureus ATCC 33591 assessed as bacterial growth inhibition incubated for 16 hrs in presence of Muller-Hinton medium by broth microdilution method; format: functional, organism-based
# Staphylococcus aureus [28] = assay: Antibacterial activity against Staphylococcus aureus ATCC 29213 assessed as bacterial growth inhibition incubated for 16 hrs in presence of Muller-Hinton medium by broth microdilution method; format: functional, organism-based
# Bacillus subtilis = assay: Antibacterial activity against Bacillus subtilis CPCC 100029 assessed as bacterial growth inhibition incubated for 16 hrs in presence of Muller-Hinton medium by broth microdilution method; format: functional, organism-based
smiles,measurement,setting,value
O=C(O[C@@H]1Cc2c(O)cc(O)cc2O[C@@H]1c1cc(O)c(O)c(O)c1)c1cc(O)c(O)c(O)c1 [EPIGALOCATECHIN GALLATE],Activity,LX-2 [1],89%
same,Activity,LX-2 [2],88%
same,Activity,LX-2 [3],62%
CCC(=O)OC[C@H](CCCCNC(=O)c1cccc(O)c1O)NC(=O)c1cccc(O)c1O,Activity,LX-2 [4],50%
same,Activity,LX-2 [5],92%
same,Activity,LX-2 [6],57%
same,Activity,LX-2 [7],73%
same,Activity,LX-2 [8],105%
same,Activity,LX-2 [9],139%
same,Activity,LX-2 [10],Non-toxic
same,Activity,NIH3T3 [11],35%
same,Activity,NIH3T3 [12],81%
same,Activity,NIH3T3 [13],61%
same,Activity,NIH3T3 [14],117%
same,inhibition,[15],75%
same,Activity,LX-2 [16],Dose-dependent-effect
same,Activity,LX-2 [17],Dose-dependent-effect
same,Activity,LX-2 [18],Dose-dependent-effect
same,Activity,Escherichia coli [19],inactive
same,Activity,Escherichia coli [20],inactive
same,Activity,Pseudomonas aeruginosa [21],inactive
same,Activity,Pseudomonas aeruginosa [22],inactive
same,Activity,Klebsiella pneumoniae [23],inactive
same,Activity,Klebsiella pneumoniae [24],inactive
same,Activity,Acinetobacter baumannii [25],inactive
same,Activity,Acinetobacter baumannii [26],inactive
same,Activity,Enterococcus faecium,inactive
same,Activity,Enterococcus faecalis,inactive
same,Activity,Staphylococcus aureus [27],inactive
same,Activity,Staphylococcus aureus [28],inactive
same,Activity,Bacillus subtilis,inactive
